Experiments:
recombinant human BACE1 [1] = test: BACE1 biochemical enzymatic assay (HTRF, APP-derived Swedish-mutation peptide substrate); conditions: selectivity for BACE1 over BACE2 from IC50 values
Protocol: (§1) BACE1 enzymatic activity was determined in a homogeneous time-resolved fluorescence (HTRF) assay, and BACE2 enzymatic activity was determined in an enzyme-linked immunosorbent assay (ELISA)-based assay using an APP-derived peptide that contains the K670N + M671L (Swedish) double mutation of the APP β secretase cleavage site as a substrate. The recombinant human BACE1 (R&D Systems, MN, USA) was incubated (2 h at 25 °C) with the substrate and the inhibitor (9 or 10 concentrations at 1/5 steps from 10 μM). Fluorescence intensity was measured (excitation wavelength: 320 nm, measuring wavelength: 620 nm and 665 nm) using RUBYstar (BMG LABTECH, Ortenberg, Germany). […] The inhibitory potential of the compounds on the enzymatic activity of BACE1 and BACE2 was determined by performing concentration–response curves.

recombinant human BACE1 [2] = biological target: T1, recombinant human BACE1 (Homo sapiens, UniProt P56817); test: as above; conditions: HTRF, 2 h at 25 °C, APP-derived peptide substrate
T1 construct: purchased R&D Systems
T1 sequence (P56817 46-501): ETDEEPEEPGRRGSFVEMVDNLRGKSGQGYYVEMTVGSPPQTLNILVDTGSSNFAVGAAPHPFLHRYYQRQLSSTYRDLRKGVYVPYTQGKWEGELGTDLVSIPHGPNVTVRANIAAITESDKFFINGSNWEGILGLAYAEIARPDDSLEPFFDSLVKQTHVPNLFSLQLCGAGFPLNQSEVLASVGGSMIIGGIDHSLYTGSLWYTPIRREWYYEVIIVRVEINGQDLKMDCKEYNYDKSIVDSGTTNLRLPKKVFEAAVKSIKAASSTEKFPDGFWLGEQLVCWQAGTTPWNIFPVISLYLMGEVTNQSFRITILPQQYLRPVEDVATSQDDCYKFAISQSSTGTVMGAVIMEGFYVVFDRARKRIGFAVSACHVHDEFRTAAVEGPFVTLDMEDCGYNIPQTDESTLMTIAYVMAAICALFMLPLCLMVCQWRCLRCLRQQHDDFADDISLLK
Protocol: as §1

brain Aβ40 = test: Brain Aβ levels in mice fed inhibitor pellets (Aβ40 ELISA, soluble brain fraction); assay type: in vivo, mouse; conditions: C57BL/6 mice, food pellets with inhibitor for one week, level reduced to % of vehicle
Description: C57BL/6 mice (CLEA Japan Inc., Tokyo, Japan) were fed with food pellets containing 0.02% elenbecestat, 0.0125% Shionogi compound 1, and 0.025% Shionogi compound 2 for one week (performed at AAALAC compatible facilities). Mouse cerebral hemispheres were removed and frozen immediately with liquid nitrogen. The frozen cerebral hemispheres were transferred to a homogenized tube containing ceramic beads in an 8-fold volume of the weight of an extraction buffer (containing 0.4% DEA (diethylamine), 50 mmol/L NaCl, completed with protease inhibitor (Roche, Basel, Switzerland)) and incubated on ice for 20 min. Thereafter, the hemispheres were homogenized using MP BIO FastPrep-24 (MP-Biomedicals, Irvine, CA, USA) with Lysing matrix D 1.4 mm ceramic beads (20 s at 6 m/s). After spinning for 1 min, the supernatant was transferred to a centrifugation tube and centrifuged at 221,000× g, 4 °C, for 50 min. After centrifugation, the supernatant was used for measuring the brain Aβ40. The brain Aβ40 was measured using Human/Rat Amyloid beta 40 ELISA Kit (FUJIFILM Wako Pure Chemical Corporation, Osaka, Japan). The assay procedure was conducted according to instructions.

cognition = conditions: in vivo; cited from earlier work
[3] = biological target: T2, recombinant human BACE2 ectodomain (Homo sapiens, UniProt Q9Y5Z0); test: BACE2 biochemical enzymatic assay (ELISA-based, APP-derived Swedish-mutation peptide substrate); conditions: 1 h at 37 °C
T2 sequence (Q9Y5Z0 63-473 limits assumed): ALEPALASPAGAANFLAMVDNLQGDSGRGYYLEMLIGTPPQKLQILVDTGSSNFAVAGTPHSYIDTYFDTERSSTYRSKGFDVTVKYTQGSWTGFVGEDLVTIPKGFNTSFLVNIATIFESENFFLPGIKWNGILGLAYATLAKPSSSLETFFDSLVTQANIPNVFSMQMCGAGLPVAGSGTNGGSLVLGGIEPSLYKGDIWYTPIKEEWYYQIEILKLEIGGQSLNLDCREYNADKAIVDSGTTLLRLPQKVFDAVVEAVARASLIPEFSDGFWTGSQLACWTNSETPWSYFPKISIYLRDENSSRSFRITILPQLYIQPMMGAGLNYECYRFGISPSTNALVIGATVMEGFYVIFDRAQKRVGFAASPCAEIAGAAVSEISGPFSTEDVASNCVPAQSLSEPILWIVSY
Protocol: BACE1 enzymatic activity was determined in a homogeneous time-resolved fluorescence (HTRF) assay, and BACE2 enzymatic activity was determined in an enzyme-linked immunosorbent assay (ELISA)-based assay using an APP-derived peptide that contains the K670N + M671L (Swedish) double mutation of the APP β secretase cleavage site as a substrate. The recombinant human BACE1 (R&D Systems, MN, USA) was incubated (2 h at 25 °C) with the substrate and the inhibitor (9 or 10 concentrations at 1/5 steps from 10 μM). Fluorescence intensity was measured (excitation wavelength: 320 nm, measuring wavelength: 620 nm and 665 nm) using RUBYstar (BMG LABTECH, Ortenberg, Germany). The recombinant human BACE2 ectodomain was incubated (1 h at 37 °C) with the substrate and the inhibitor (10 concentrations at 1/4 steps from 25 μM). The count of chemi-luminescence in each well was measured using ARVOTM MX 1420 Multilabel Counter (PerkinElmer, Shelton, CT, USA). The inhibitory potential of the compounds on the enzymatic activity of BACE1 and BACE2 was determined by performing concentration–response curves.

[4] = system: dendritic spines of layer V pyramidal neurons, somatosensory cortex; test: Longitudinal in vivo two-photon dendritic spine imaging in GFP-M mice; parameters: species or system mouse; conditions: inhibitor food pellets for 21 days, compared to vehicle
[5] = system: soluble Seizure protein 6 (sSez6); test: Soluble Sez6 levels in the mouse brain (Western blot); assay type: in vivo; conditions: C57BL/6 mice, food pellets with inhibitor for one week, soluble brain fraction; level reduced to % of vehicle
Description: C57BL/6 mice (CLEA Japan Inc., Tokyo, Japan) were fed with food pellets containing 0.02% elenbecestat, 0.0125% Shionogi compound 1, and 0.025% Shionogi compound 2 for one week (performed at AAALAC compatible facilities). Mouse cerebral hemispheres were removed and frozen immediately with liquid nitrogen. The frozen cerebral hemispheres were transferred to a homogenized tube containing ceramic beads in an 8-fold volume of the weight of an extraction buffer (containing 0.4% DEA (diethylamine), 50 mmol/L NaCl, completed with protease inhibitor (Roche, Basel, Switzerland)) and incubated on ice for 20 min. […] The brain Aβ40 was measured using Human/Rat Amyloid beta 40 ELISA Kit (FUJIFILM Wako Pure Chemical Corporation, Osaka, Japan). […]
The brain samples were heated at 95 °C in 1% SDS sample buffer with 100 mM DTT for 5 min, separated by SDS-PAGE on 4–20% precast polyacrylamide gels (Biorad, Feldkirchen, Germany), and transferred to PVDF membranes (Biorad, Feldkirchen, Germany). […] After final washes with PBST, the membranes were incubated with ECL prime for a few minutes, and signal was detected with LAS-3000 (FUJIFILM Wako Pure Chemical Corporation, Osaka, Japan). Densitometry quantification of Western blot signal was conducted using Multi Gauge V3.1 software (FUJIFILM Wako Pure Chemical Corporation, Osaka, Japan).

[6] = system: dendritic spines of layer V pyramidal neurons, somatosensory cortex; conditions: mouse, in vivo; cited from earlier work

SMILES	BACE1/BACE2 (fold) (recombinant human BACE1 [1])	IC50 (recombinant human BACE1 [2])	Brain Aβ level compared to vehicle (brain Aβ40)	Cognitive worsening in the clinic (cognition)	IC50 [3]	Dendritic spine density [4]	Brain sSez6 level compared to vehicle [5]	Dendritic spine plasticity in the cerebral cortex [6]
C[C@H]1OC[C@]2(c3cc(NC(=O)c4cnc(C(F)F)cn4)ccc3F)N=C(N)SC[C@H]12 [Elenbecestat, elenbecestat]	12 fold	3.9 nM	46%	did not show cognitive worsening	46 nM	do not alter dendritic spine density	27%	
CN1C(=N)N[C@](C)(c2cc(NC(=O)c3ccc(F)cn3)ccc2F)CS1(=O)=O [verubecesat, verubecestat]								significant decrease in dendritic spine plasticity

Source: paper PMC10418759, “New Highly Selective BACE1 Inhibitors and Their Effects on Dendritic Spine Density In Vivo” (International Journal of Molecular Sciences, 2023)
